Test results: US20150202172A1, “NOVEL METHOD OF USE” (Glaxo Group Limited, priority 2014, published 2015)

Tests used:
[1] = test system: patients with Severe Refractory Chronic Hand Eczema (CHE); assay: Clinical trial simulation (longitudinal dose response model): time from initial dose to onset of effect; type: in vivo, human; conditions: for Time to Onset of Effect (a Drop of 2 or More Points in PGA in 30% of Subjects): 30 mg
Procedure: In reviewing the data to make these determinations, all available PGA scores observed (not including scores derived from missing data such as last observation carried forward (LOCF) including those at baseline, every 4 weeks during treatment, and every 4 to 8 weeks after cessation of treatment for up to 72 weeks post treatment from the various clinical trials were used to develop a longitudinal dose response model.
(§1) In clinical studies, efficacy was measured using PGA score and modified total lesion signs and symptoms (mTLSS) at various times during and post treatment. PGA scores over time were chosen for this analysis because PGA scores were the primary endpoint in the Phase III studies and were collected at more time points than the mTLSS. The PGA was graded according to 5 point scale (clear, almost clear, mild disease, moderate disease, severe disease). The mTLSS severity score was graded 0 to 3 for 7 parameters.
A >2 weeks time to onset is considered clinically relevant.

[2] = test system: patients with Severe Refractory Chronic Hand Eczema (CHE); assay: Clinical trial simulation (longitudinal dose response model): PGA score at end of treatment; type: in vivo, human; conditions: 30 mg
Procedure: as §1
For the Physician Global Assessment (PGA), a general description of CHE severity, which is a well recognized scale is shown below in Table 7 for clarification purposes.

In the case of `CC1=C(/C=C/C(C)=C\C=C\C(C)=C\C(=O)O)C(C)(C)CCC1` [Alitretinoin, 9-cis isomer of retinoic acid (RA)], the “faster time to onset of effect” value ([1]; 65 or 75 year old compared with a 30 year old) was over 2 weeks, the “Time to Onset of Effect (a Drop of 2 or More Points in PGA in 30% of Subjects)” value ([1]; age 30 yr) was 58 (49, 70) Days and the “Time to Onset of Effect (a Drop of 2 or More Points in PGA in 30% of Subjects)” value ([1]; age 50 yr) was 49 (42, 56) Days. The “Time to Onset of Effect (a Drop of 2 or More Points in PGA in 30% of Subjects)” value ([1]; age 65 yr) was 43 (35, 49) Days, the “Time to Onset of Effect (a Drop of 2 or More Points in PGA in 30% of Subjects)” value ([1]; age 75 yr) was 39 (35, 42) Days and the “Proportion of Responders (PGA = 1 or 2) at End of Treatment” value (shortened to “Proportion of Responders”) ([2]; age 30 yr) was 33.9 (26, 42) %. The “Proportion of Subjects (PGA = 2) at End of Treatment” value ([2]; age 30 yr) was 22.9 (16, 30) %, the “Proportion of Subjects (PGA = 3) at End of Treatment” value ([2]; age 30 yr) was 28.4 (21, 36) % and the “Proportion of Responders” value ([2]; age 50 yr) was 41.1 (33, 49) %. For the same molecule, the “Proportion of Subjects (PGA = 1) at End of Treatment” value ([2]; age 50 yr) was 14.9 (9, 21) %, the “Proportion of Subjects (PGA = 2) at End of Treatment” value ([2]; age 50 yr) was 26.3 (20, 34) % and the “Proportion of Subjects (PGA = 3) at End of Treatment” value ([2]; age 50 yr) was 28.3 (20, 35) %. The “Proportion of Responders” value ([2]; age 65 yr) was 48.0 (40, 56) %, the “Proportion of Subjects (PGA = 1) at End of Treatment” value ([2]; age 65 yr) was 19.3 (13, 26) % and the “Proportion of Subjects (PGA = 2) at End of Treatment” value ([2]; age 65 yr) was 28.7 (22, 36) %. For the same molecule, the “Proportion of Subjects (PGA = 3) at End of Treatment” value ([2]; age 65 yr) was 27.1 (19, 35) %, the “Proportion of Responders” value ([2]; age 75 yr) was 53.0 (45, 62) % and the “Proportion of Subjects (PGA = 1) at End of Treatment” value ([2]; age 75 yr) was 22.8 (16, 30) %. The “Proportion of Subjects (PGA = 2) at End of Treatment” value ([2]; age 75 yr) was 30.2 (23, 37) %, the “Proportion of Subjects (PGA = 3) at End of Treatment” value ([2]; age 75 yr) was 25.8 (18, 33) % and the “Proportion of Responders” value ([2]; duration of treatment 4 weeks) was 4.3 (1, 8) %. The “Proportion of Subjects (PGA = 1) at End of Treatment” value ([2]; duration of treatment 4 weeks) was 1.3 (1, 2) %, the “Proportion of Subjects (PGA = 2) at End of Treatment” value ([2]; duration of treatment 4 weeks) was 3.7 (1, 7) % and the “Proportion of Subjects (PGA = 3) at End of Treatment” value ([2]; duration of treatment 4 weeks) was 10.5 (5, 16) %. The “Proportion of Responders” value ([2]; duration of treatment 8 weeks) was 15.2 (10, 21) %, the “Proportion of Subjects (PGA = 1) at End of Treatment” value ([2]; duration of treatment 8 weeks) was 3.6 (1, 7) % and the “Proportion of Subjects (PGA = 2) at End of Treatment” value ([2]; duration of treatment 8 weeks) was 11.7 (7, 17) %. For the same molecule, the “Proportion of Subjects (PGA = 3) at End of Treatment” value ([2]; duration of treatment 8 weeks) was 22.5 (16, 29) %, the “Proportion of Responders” value ([2]; duration of treatment 12 weeks) was 23.7 (16, 31) % and the “Proportion of Subjects (PGA = 1) at End of Treatment” value ([2]; duration of treatment 12 weeks) was 6.6 (3, 11) %. The “Proportion of Subjects (PGA = 2) at End of Treatment” value ([2]; duration of treatment 12 weeks) was 17.1 (11, 24) %, the “Proportion of Subjects (PGA = 3) at End of Treatment” value ([2]; duration of treatment 12 weeks) was 26.4 (19, 34) % and the “Proportion of Responders” value ([2]; duration of treatment 16 weeks) was 30.2 (23, 38) %. The “Proportion of Subjects (PGA = 1) at End of Treatment” value ([2]; duration of treatment 16 weeks) was 9.2 (5, 14) %, the “Proportion of Subjects (PGA = 2) at End of Treatment” value ([2]; duration of treatment 16 weeks) was 21.0 (14, 28) % and the “Proportion of Subjects (PGA = 3) at End of Treatment” value ([2]; duration of treatment 16 weeks) was 27.7 (21, 35) %. The “Proportion of Responders” value ([2]; duration of treatment 20 weeks) was 35.4 (28, 43) %, the “Proportion of Subjects (PGA = 1) at End of Treatment” value ([2]; duration of treatment 20 weeks) was 11.9 (7, 17) % and the “Proportion of Subjects (PGA = 2) at End of Treatment” value ([2]; duration of treatment 20 weeks) was 23.6 (17, 31) %. The “Proportion of Subjects (PGA = 3) at End of Treatment” value ([2]; duration of treatment 20 weeks) was 28.0 (21, 35) %, the “Proportion of Responders” value ([2]; duration of treatment 24 weeks) was 40.4 (33, 48) % and the “Proportion of Subjects (PGA = 1) at End of Treatment” value ([2]; duration of treatment 24 weeks) was 14.7 (9, 21) %. For the same molecule, the “Proportion of Subjects (PGA = 2) at End of Treatment” value ([2]; duration of treatment 24 weeks) was 25.7 (19, 33) %.
